Experimental data: paper PMC8480326, “Chemoenzymatic glycan-selective remodeling of a therapeutic lysosomal enzyme with high-affinity M6P-glycan ligands. Enzyme substrate specificity is the name of the game” (Chemical Science, 2021)
“Also recorded” adds a separate entry of the source.

Columns and labels:
CI-MPR = target: CI-MPR; parameters: method as in PMID 30843882; details: rhGAA with higher M6P content; read-out: apparent KD; cited from earlier work
[1] = system: GAA-deficient multinucleated myotubes (KO); test: Cell-associated GAA activity in treated GAA KO myotubes; assay type: cell-based, mouse; details: 5 μM for 24 hours, n = 5, versus untreated cells
Description: To evaluate the effect of the Endo-A (69) and Endo-F3 (70) remodeled rhGAA in the disease-relevant muscle cells, we used GAA-deficient multinucleated myotubes (KO) as an in vitro cell model system for Pompe disease.[48,49] These myotubes are formed from conditionally immortalized myoblasts derived from the GAA knockout mice; unlike myoblasts, the differentiated myotubes replicate the primary defect of the disease, namely, the enlargement of glycogen-laden lysosomes.
The available anti-human GAA antibodies detected a strong non-specific band in mouse muscle cells as indicated by its presence in both WT and GAA-deficient cell (Fig. 4b, right panel). Previous studies have shown that the mature 76 kDa form of GAA has a higher affinity and activity towards glycogen.[31,50] […]
BIAcore T200 evaluation software. rhGAA enzyme activity assay. The enzyme activity was assayed by using the substrate 4-methylumbelliferyl-α-D-glucopyranoside (4-MUG) (Sigma-Aldrich) which generates fluorescence on digestion.[9, 10] […] The reaction was monitored at 0 min, 1 min, 2 min, 5 min, 10 min and 15 min by taking 20 μL of aliquot and add ing 50 μL of stop buffer (100 mM glycine/NaOH, pH 11). Fluorescence was measured by a spectrophotometer with 355 nm excitation and 460 nm emission, and the error bar was based on three independent assays. […]

[2] = system: GAA-deficient multinucleated myotubes (KO); test: Western blot (anti-human GAA) of treated muscle cell lysates; assay type: cell-based, mouse; details: 5 μM for 24 hours, Western blot with anti-human GAA antibodies
Description: The available anti-human GAA antibodies detected a strong non-specific band in mouse muscle cells as indicated by its presence in both WT and GAA-deficient cell (Fig. 4b, right panel). Previous studies have shown that the mature 76 kDa form of GAA has a higher affinity and activity towards glycogen.[31,50]
Fig. 4 Effect of the therapeutic enzymes in GAA KO (KO) myotubes. […] GAA activity in cell lysates of wild type (WT) myotubes was measured for comparison. The KO cells were treated for 24 hours with 5 μM of each of the recombinant enzyme; n = 5 for each condition. Statistical significance was determined by one-way ANOVA; graph represents mean ± SD. *p <0.05; ****p <0.0001; ns – statistically insignificant. (b) Western blot analysis (with anti-human GAA antibodies) of muscle cell lysates treated with the recombinant enzymes; GAPDH was used as loading control. […]
(§1) Measurement of cell-associated GAA activity. The GAA activity in the cells was measured by using 4-methylumbelliferyl-α-D-glucopyranoside (4-MU- α-glucopyranoside; Sigma-Aldrich #M9766) as the fluorogenic GAA substrate as described.[13] […] Fluorescence was measured on a multi-label plate reader (TECAN, SPARK 10M) at 360 nm excitation/465 nm emission.
(§2) Measurement of the glycogen content. The glycogen content was measured as the amount of glucose released after glycogen digestion with Aspergillus Niger amyloglucosidase (Sigma-Aldrich). […]

[3] = system: GAA-deficient multinucleated myotubes (KO); test: Western blot of lysosomal (LAMP1) and endosomal (Rab5) markers; assay type: cell-based, mouse; details: 5 μM for 24 hours
[4] = target: T1, Recombinant human IGF-II R (CI-MPR) (Homo sapiens, UniProt P11717); test: SPR binding to immobilized CI-MPR; details: SPR, immobilized CI-MPR
T1 construct: purchased R&D Systems
T1 sequence (P11717 41-2491): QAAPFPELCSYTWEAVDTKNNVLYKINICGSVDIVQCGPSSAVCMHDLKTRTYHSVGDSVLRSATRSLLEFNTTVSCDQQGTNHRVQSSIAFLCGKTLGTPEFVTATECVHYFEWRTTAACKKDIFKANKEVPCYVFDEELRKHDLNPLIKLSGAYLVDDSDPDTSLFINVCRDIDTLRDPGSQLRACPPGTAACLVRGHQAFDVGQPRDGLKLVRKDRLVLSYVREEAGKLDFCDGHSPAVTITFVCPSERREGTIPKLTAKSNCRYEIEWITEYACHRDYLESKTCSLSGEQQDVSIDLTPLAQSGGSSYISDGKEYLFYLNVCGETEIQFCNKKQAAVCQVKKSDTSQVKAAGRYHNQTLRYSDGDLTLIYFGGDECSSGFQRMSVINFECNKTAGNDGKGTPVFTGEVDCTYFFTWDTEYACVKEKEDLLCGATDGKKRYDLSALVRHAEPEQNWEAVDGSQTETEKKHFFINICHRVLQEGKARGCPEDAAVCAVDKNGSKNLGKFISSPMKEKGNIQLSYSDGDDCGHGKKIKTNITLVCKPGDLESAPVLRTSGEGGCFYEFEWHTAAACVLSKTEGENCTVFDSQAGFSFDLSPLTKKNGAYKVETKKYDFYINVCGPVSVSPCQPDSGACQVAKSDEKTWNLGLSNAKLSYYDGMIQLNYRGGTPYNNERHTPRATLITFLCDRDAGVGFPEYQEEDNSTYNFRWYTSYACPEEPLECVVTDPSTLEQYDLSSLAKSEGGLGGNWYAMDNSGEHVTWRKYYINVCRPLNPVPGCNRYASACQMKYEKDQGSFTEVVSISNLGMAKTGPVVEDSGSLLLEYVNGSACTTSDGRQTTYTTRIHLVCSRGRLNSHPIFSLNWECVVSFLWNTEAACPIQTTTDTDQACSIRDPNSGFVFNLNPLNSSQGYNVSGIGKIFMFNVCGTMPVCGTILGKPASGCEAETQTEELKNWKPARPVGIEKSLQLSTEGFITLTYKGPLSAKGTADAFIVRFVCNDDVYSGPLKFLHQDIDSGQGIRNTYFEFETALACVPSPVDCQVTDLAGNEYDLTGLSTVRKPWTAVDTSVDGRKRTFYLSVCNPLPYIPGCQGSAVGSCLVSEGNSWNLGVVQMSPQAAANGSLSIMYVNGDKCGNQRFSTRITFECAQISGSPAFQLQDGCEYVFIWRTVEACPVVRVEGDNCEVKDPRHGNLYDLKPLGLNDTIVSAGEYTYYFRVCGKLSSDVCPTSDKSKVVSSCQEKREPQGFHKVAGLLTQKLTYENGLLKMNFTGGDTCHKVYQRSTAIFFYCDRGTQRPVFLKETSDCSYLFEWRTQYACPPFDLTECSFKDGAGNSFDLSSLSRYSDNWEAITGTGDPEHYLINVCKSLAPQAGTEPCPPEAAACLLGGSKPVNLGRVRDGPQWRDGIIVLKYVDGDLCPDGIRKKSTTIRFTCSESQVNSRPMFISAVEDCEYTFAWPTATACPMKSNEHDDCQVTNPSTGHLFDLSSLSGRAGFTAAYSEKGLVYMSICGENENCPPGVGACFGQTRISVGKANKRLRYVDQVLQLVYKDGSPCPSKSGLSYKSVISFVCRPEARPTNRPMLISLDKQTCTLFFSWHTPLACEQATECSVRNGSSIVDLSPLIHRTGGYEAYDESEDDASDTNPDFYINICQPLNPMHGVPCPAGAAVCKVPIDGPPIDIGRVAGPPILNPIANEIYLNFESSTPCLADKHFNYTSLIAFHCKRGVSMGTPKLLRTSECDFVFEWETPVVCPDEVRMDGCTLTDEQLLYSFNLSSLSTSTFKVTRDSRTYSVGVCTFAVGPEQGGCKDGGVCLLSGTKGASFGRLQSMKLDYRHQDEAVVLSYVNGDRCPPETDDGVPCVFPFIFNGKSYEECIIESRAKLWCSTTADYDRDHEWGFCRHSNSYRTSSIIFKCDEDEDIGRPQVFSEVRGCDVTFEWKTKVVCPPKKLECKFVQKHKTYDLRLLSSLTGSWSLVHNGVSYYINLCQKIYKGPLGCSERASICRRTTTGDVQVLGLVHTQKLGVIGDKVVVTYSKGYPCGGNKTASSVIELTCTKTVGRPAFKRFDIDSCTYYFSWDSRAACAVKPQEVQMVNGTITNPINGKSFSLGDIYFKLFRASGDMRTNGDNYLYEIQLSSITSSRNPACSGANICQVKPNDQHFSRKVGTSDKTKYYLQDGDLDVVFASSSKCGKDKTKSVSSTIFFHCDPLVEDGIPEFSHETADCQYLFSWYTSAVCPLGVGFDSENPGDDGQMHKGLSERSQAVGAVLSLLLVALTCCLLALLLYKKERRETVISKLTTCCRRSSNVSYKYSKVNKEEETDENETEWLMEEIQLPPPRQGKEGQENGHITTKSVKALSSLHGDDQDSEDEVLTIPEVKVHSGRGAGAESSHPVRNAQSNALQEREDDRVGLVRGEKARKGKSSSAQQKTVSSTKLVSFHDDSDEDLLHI
Description: Surface Plasmon Resonance (SPR) Measurements. SPR measurements were performed on a Biacore T200 instrument (GE Healthcare). Recombinant human IGF-II R (CI-MPR) was purchased
from R&D Systems. Approximately 7000 resonance units (RU) of CI-MPR was immobilized on a
CM5 sensor chip in a sodium acetate buffer (25 μg/mL, pH 4.0) at 25 °C, using the amine coupling kit
provided by the manufacturer. Mannose 6-phosphate containing glycopeptides or glycoproteins were
determined at 25 °C under a flow rate of 10 μL/min. HBS-P+ buffer (10 mM HEPES, 150 mM NaCl,
0.05% surfactant P20, pH 7.4) was used as sample buffer and running buffer. Association was
measured for 3 min and dissociation for 10 min at same flow rate (10 μL/min). The surface
and glycoprotein analytes flowed over an immobilized chip with 2-fold serial dilution of the highest
concentration of 4 μM (for glycopeptides) or 1 μM (for RNase B) or 250 nM (for rhGAA).
analyses were performed by global fitting of the binding data to a 1:1 Langmuir binding model using

[5] = system: GAA-deficient multinucleated myotubes (KO); test: Lamp1 immunostaining of myotubes (lysosomal swelling); assay type: cell-based, mouse; details: 5 μM for 24 hours, confocal images
Description: The effect of the Endo-A and Endo-F3 remodeled rhGAA was confirmed by immunostaining of myotubes with Lamp1. […] The therapeutic potential of the M6P glycan-remodeled rhGAA in lysosomal glycogen reduction and reversal of muscle pathology will be further evaluated in Pompe disease animal models in future studies.
Fig. 5 Effect of the therapeutic enzymes on lysosomal swelling and glycogen content in GAA KO (KO) myotubes. […] Nuclei are stained with DAPI (blue). Bar: 10 μm. (b) Graph illustrates glycogen levels measured in cell lysates from WT, untreated- and treated KO myotubes. […] Statistical significance was determined by one-way ANOVA; graph represents mean ± SD. **p <0.01; ****p <0.0001; ns – statistically insignificant.
as §1, §2

For “ATB200: a novel rhGAA carrying a higher M6P content”, the Kd (CI-MPR) is listed as 2 to 4 nM.

For “Lumizyme: recombinant human acid α-glucosidase (rhGAA; Lumizyme, Sanofi Genzyme) used for treatment of Pompe disease”, the “GAA activity in cell lysates” value [1] was “only a slight increase (statistically insignificant)”, the “processed, mature lysosomal form of rhGAA (76 kDa) in cells” value [2] was “barely detectable” and the “levels of endosomal (Rab5) and lysosomal (LAMP1) markers” value [3] was “remained the same as in the untreated GAA-deficient cells”. The Kd ([4]; 25 °C, average of three independent experiments) was 14 ± 3.7 nM and the “enlarged LAMP1-positive lysosomes” value [5] was “Enlarged lysosomes were seen; also recorded: can be detected”.

In the case of “deglycosylated rhGAA: rhGAA treated with wild-type Endo-A to remove the high-mannose N-glycans including the M6P glycans”, the “affinity for CI-MPR (in words)” value [4] is reported as “lost its binding affinity”.
